Results from patent US7824853B2, “Complex comprising at least two biospecific elements separated by a nucleic acid linker e.g. for identification of drug delivery candidates combinatorial library of such complexes” (Avaris AB, priority 2002, dated 2010).

Tested on: peripheral blood mononuclear cells, population with the characteristics of monocytes
Assay: Monocyte binding assay (FACS, binding and uptake of fluorescent complexes)
Type: cell-based
Conditions: monocytic population; incubated one hour at +37° C., then trypsinisation; 6-FAM labelled 48-mer oligo
Description: Oligonucleotides (48-mers) with recognition sites for 2 different peptide-nucleic-acid sequences and with a fluorescent label were designed and manufactured. Each binding site corresponds to 15 nucleotides. The 48-mer oligos contain in the 5′ end the fluorescent label, 6-FAM, followed by three thymidine residues as spacer. There is a single central target site (GGAAGGGCCGAGCGC, Seq. Id. No. 2) surrounded by two identical adjacent target sites (CAATCGGAACGGATC, Seq. Id. No. 1).
Peptide-nucleic-acid-linker3-peptide (=ligand) fusions were generated as described before (Brandén L J, Mohamed A J, Smith C I E. A peptide nucleic acid-nuclear localisation signal fusion that mediates nuclear transport of DNA. Nature Biotechnol 17: 784-787, 1999). […]
Peptide-nucleic-acid-linker3-peptide (=ligand) fusions were hybridised to oligonucleotides in order to generate the novel biomolecular complexes. […] Following the incubation cells were analysed in a fluorescent activated cell sorter (FACS SCAN, Becton Dickinson, Mountain View, Calif.).

TAT (FE2): PNA-linker3-HIV TAT peptide (grkkrrqrrrppqc) fusion hybridised to central target site Seq. Id. No. 2 of the 48-mer oligo
Percentage of fluorescent cells: 0.93%
